Reference: PubChem BioAssay (NCI)
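Dose response: 5 concentrations. Exposure: 48 h. Format: 96-well plates. Endpoint: linear interpolation; highest concentration if not reached. GI50: concentration for 50% inhibition of growth. TGI: total growth inhibition.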

Experiments:
Test in all cases: NCI-60 cell line screen, 48 h
NCI-H23 lung = system: NCI-H23 lung
DU-145 prostate = system: DU-145 prostate
RPMI-8226 leukemia = system: RPMI-8226 leukemia
CAKI-1 renal = system: CAKI-1 renal
OVCAR-8 ovarian = system: OVCAR-8 ovarian
SK-MEL-28 melanoma = system: SK-MEL-28 melanoma
SF-268 CNS = system: SF-268 CNS
OVCAR-4 ovarian = system: OVCAR-4 ovarian
MDA-MB-231 breast = system: MDA-MB-231 breast
A549 NSCLC = system: A549 NSCLC

O=c1[nH]cnc2c(C3NC(CO)C(O)C3O)c[nH]c12 (stereo not drawn)
GI50 (NCI-H23 lung): > 100 µM
TGI (NCI-H23 lung): > 100 µM
GI50 (DU-145 prostate): > 100 µM
TGI (DU-145 prostate): > 100 µM
GI50 (RPMI-8226 leukemia): > 100 µM
TGI (RPMI-8226 leukemia): > 100 µM
GI50 (CAKI-1 renal): > 100 µM
TGI (CAKI-1 renal): > 100 µM
GI50 (OVCAR-8 ovarian): > 100 µM
TGI (OVCAR-8 ovarian): > 100 µM
GI50 (SK-MEL-28 melanoma): > 100 µM
TGI (SK-MEL-28 melanoma): > 100 µM
GI50 (SF-268 CNS): > 100 µM
TGI (SF-268 CNS): > 100 µM
GI50 (OVCAR-4 ovarian): > 100 µM
TGI (OVCAR-4 ovarian): > 100 µM
GI50 (MDA-MB-231 breast): > 100 µM
TGI (MDA-MB-231 breast): > 100 µM
GI50 (A549 NSCLC): > 100 µM
TGI (A549 NSCLC): > 100 µM

O=C1NC(=O)C(c2cccc(Cl)c2)=C1Nc1ccc(O)c(Cl)c1
GI50 (NCI-H23 lung): 12.9 µM
TGI (NCI-H23 lung): > 25 µM
GI50 (DU-145 prostate): 14.1 µM
TGI (DU-145 prostate): > 25 µM
GI50 (RPMI-8226 leukemia): 14 µM
TGI (RPMI-8226 leukemia): > 25 µM
GI50 (CAKI-1 renal): 7.72 µM
TGI (CAKI-1 renal): > 25 µM
GI50 (OVCAR-8 ovarian): 14 µM
TGI (OVCAR-8 ovarian): > 25 µM
GI50 (SK-MEL-28 melanoma): 13.7 µM
TGI (SK-MEL-28 melanoma): > 25 µM
GI50 (SF-268 CNS): 11.2 µM
TGI (SF-268 CNS): > 25 µM
GI50 (OVCAR-4 ovarian): 8.98 µM
TGI (OVCAR-4 ovarian): > 25 µM
GI50 (MDA-MB-231 breast): 16.1 µM
TGI (MDA-MB-231 breast): > 25 µM
GI50 (A549 NSCLC): 9.88 µM
TGI (A549 NSCLC): > 25 µM

COc1cc(/C=C/[N+](=O)[O-])cc(Br)c1OC
GI50 (NCI-H23 lung): 2.06 µM
TGI (NCI-H23 lung): 5.28 µM
GI50 (DU-145 prostate): 1.8 µM
TGI (DU-145 prostate): 3.56 µM
GI50 (RPMI-8226 leukemia): 2.59 µM
TGI (RPMI-8226 leukemia): 6.64 µM
GI50 (CAKI-1 renal): 1.89 µM
TGI (CAKI-1 renal): 5.23 µM
GI50 (OVCAR-8 ovarian): 3.54 µM
TGI (OVCAR-8 ovarian): 13.1 µM
GI50 (SK-MEL-28 melanoma): 2.39 µM
TGI (SK-MEL-28 melanoma): 6.14 µM
GI50 (SF-268 CNS): 3.64 µM
TGI (SF-268 CNS): 13.2 µM
GI50 (OVCAR-4 ovarian): 7.65 µM
TGI (OVCAR-4 ovarian): 20.8 µM
GI50 (MDA-MB-231 breast): 3.03 µM
TGI (MDA-MB-231 breast): 8.05 µM
GI50 (A549 NSCLC): 7.84 µM
TGI (A549 NSCLC): 22 µM

CN(CCCCCl)P(=O)(OCCS(=O)(=O)CC(NC(=O)CCC(N)C(=O)O)C(=O)NC(C(=O)O)c1ccccc1)OCC1OC(n2cc(F)c(=O)[nH]c2=O)CC1O (stereo not drawn)
GI50 (NCI-H23 lung): 0.27 µM
TGI (NCI-H23 lung): > 33.7 µM
GI50 (DU-145 prostate): 0.214 µM
TGI (DU-145 prostate): > 100 µM
TGI (RPMI-8226 leukemia): 1.48 µM
GI50 (CAKI-1 renal): 0.0177 µM
TGI (CAKI-1 renal): 25.6 µM
GI50 (OVCAR-8 ovarian): 0.274 µM
TGI (OVCAR-8 ovarian): > 100 µM
GI50 (SK-MEL-28 melanoma): 15.2 µM
TGI (SK-MEL-28 melanoma): > 100 µM
GI50 (SF-268 CNS): < 0.01 µM
GI50 (OVCAR-4 ovarian): 8.27 µM
TGI (OVCAR-4 ovarian): > 100 µM
GI50 (MDA-MB-231 breast): 8.96 µM
TGI (MDA-MB-231 breast): 68.6 µM
GI50 (A549 NSCLC): < 0.0506 µM
TGI (A549 NSCLC): > 100 µM

CC1(C)N=C(N)N=C(N)N1c1ccc(CCCCc2ccc(S(=O)(=O)F)cc2)c(Cl)c1
GI50 (NCI-H23 lung): 0.363 µM
TGI (NCI-H23 lung): 19.5 µM
GI50 (DU-145 prostate): 0.484 µM
TGI (DU-145 prostate): 17.5 µM
GI50 (RPMI-8226 leukemia): 0.283 µM
TGI (RPMI-8226 leukemia): 13 µM
GI50 (CAKI-1 renal): 0.79 µM
TGI (CAKI-1 renal): > 100 µM
GI50 (OVCAR-8 ovarian): 0.452 µM
TGI (OVCAR-8 ovarian): 18.4 µM
GI50 (SK-MEL-28 melanoma): 0.85 µM
TGI (SK-MEL-28 melanoma): 20.8 µM
GI50 (SF-268 CNS): 0.225 µM
TGI (SF-268 CNS): 19.5 µM
GI50 (OVCAR-4 ovarian): 5.18 µM
TGI (OVCAR-4 ovarian): 22 µM
GI50 (MDA-MB-231 breast): 1.76 µM
TGI (MDA-MB-231 breast): 21.2 µM
GI50 (A549 NSCLC): 0.334 µM
TGI (A549 NSCLC): > 44.8 µM

Nc1ccc(-c2nc3ccccc3[nH]2)c2ccccc12
GI50 (NCI-H23 lung): 3.24 µM
TGI (NCI-H23 lung): > 30.3 µM
GI50 (DU-145 prostate): 2.81 µM
TGI (DU-145 prostate): > 22.3 µM
GI50 (RPMI-8226 leukemia): 2.64 µM
TGI (RPMI-8226 leukemia): > 37 µM
GI50 (CAKI-1 renal): 2.23 µM
TGI (CAKI-1 renal): > 53.7 µM
GI50 (OVCAR-8 ovarian): 5.2 µM
TGI (OVCAR-8 ovarian): 65.1 µM
GI50 (SK-MEL-28 melanoma): 4.27 µM
TGI (SK-MEL-28 melanoma): > 62.1 µM
GI50 (SF-268 CNS): 5.93 µM
TGI (SF-268 CNS): > 100 µM
GI50 (OVCAR-4 ovarian): 8.26 µM
TGI (OVCAR-4 ovarian): > 72.5 µM
GI50 (MDA-MB-231 breast): 8.16 µM
TGI (MDA-MB-231 breast): > 41.7 µM
GI50 (A549 NSCLC): 6.6 µM
TGI (A549 NSCLC): 50.3 µM

COc1ccc2c(c1)OC1=C(C(=O)OC1)C2c1cc(OC)c2c(c1)OCO2 (stereo not drawn)
GI50 (NCI-H23 lung): 0.0441 µM
TGI (NCI-H23 lung): > 100 µM
GI50 (DU-145 prostate): 0.0364 µM
TGI (DU-145 prostate): 0.459 µM
GI50 (RPMI-8226 leukemia): 0.0487 µM
TGI (RPMI-8226 leukemia): > 100 µM
GI50 (CAKI-1 renal): 0.108 µM
TGI (CAKI-1 renal): > 100 µM
GI50 (OVCAR-8 ovarian): 0.0516 µM
TGI (OVCAR-8 ovarian): > 100 µM
GI50 (SK-MEL-28 melanoma): 0.0342 µM
TGI (SK-MEL-28 melanoma): > 100 µM
GI50 (SF-268 CNS): 0.0795 µM
TGI (SF-268 CNS): > 100 µM
GI50 (OVCAR-4 ovarian): 0.0597 µM
TGI (OVCAR-4 ovarian): > 100 µM
GI50 (MDA-MB-231 breast): 0.0689 µM
TGI (MDA-MB-231 breast): > 100 µM
GI50 (A549 NSCLC): 0.0459 µM
TGI (A549 NSCLC): > 100 µM

N/N=C1\CC(=O)NC(=O)N1
TGI (NCI-H23 lung): > 100 µM
TGI (DU-145 prostate): > 100 µM
TGI (RPMI-8226 leukemia): > 100 µM
TGI (CAKI-1 renal): > 100 µM
TGI (OVCAR-8 ovarian): > 100 µM
TGI (SK-MEL-28 melanoma): > 100 µM
TGI (SF-268 CNS): > 100 µM
TGI (OVCAR-4 ovarian): > 100 µM
TGI (MDA-MB-231 breast): > 100 µM
TGI (A549 NSCLC): > 100 µM

O=C(Oc1cccnc1)c1ccsc1Nc1ccnc(C(F)(F)F)c1
GI50 (NCI-H23 lung): 4.07 µM
TGI (NCI-H23 lung): > 100 µM
GI50 (DU-145 prostate): 24.6 µM
TGI (DU-145 prostate): > 100 µM
GI50 (RPMI-8226 leukemia): 6.45 µM
TGI (RPMI-8226 leukemia): 51.8 µM
GI50 (CAKI-1 renal): 3.82 µM
TGI (CAKI-1 renal): > 100 µM
GI50 (OVCAR-8 ovarian): 4.14 µM
TGI (OVCAR-8 ovarian): > 100 µM
GI50 (SK-MEL-28 melanoma): 6.28 µM
TGI (SK-MEL-28 melanoma): 39.9 µM
GI50 (SF-268 CNS): 4.54 µM
TGI (SF-268 CNS): > 100 µM
GI50 (OVCAR-4 ovarian): 5.21 µM
TGI (OVCAR-4 ovarian): > 100 µM
GI50 (MDA-MB-231 breast): 6.03 µM
TGI (MDA-MB-231 breast): > 100 µM
GI50 (A549 NSCLC): 7.68 µM
TGI (A549 NSCLC): > 100 µM

CC(=O)c1c(C(F)(F)F)n([O-])c2ccc(C)cc2[n+]1=O
GI50 (NCI-H23 lung): 2.08 µM
TGI (NCI-H23 lung): 11.2 µM
GI50 (DU-145 prostate): 1.43 µM
TGI (DU-145 prostate): 3.07 µM
GI50 (RPMI-8226 leukemia): 0.686 µM
TGI (RPMI-8226 leukemia): 4.04 µM
GI50 (CAKI-1 renal): 3.46 µM
TGI (CAKI-1 renal): 24.6 µM
GI50 (OVCAR-8 ovarian): 3.82 µM
TGI (OVCAR-8 ovarian): > 100 µM
GI50 (SK-MEL-28 melanoma): 23.3 µM
TGI (SK-MEL-28 melanoma): > 100 µM
GI50 (SF-268 CNS): 3.41 µM
TGI (SF-268 CNS): > 38.9 µM
GI50 (OVCAR-4 ovarian): 4.88 µM
TGI (OVCAR-4 ovarian): > 100 µM
GI50 (MDA-MB-231 breast): 1.82 µM
TGI (MDA-MB-231 breast): 5.52 µM
GI50 (A549 NSCLC): 4.48 µM
TGI (A549 NSCLC): 26.6 µM

N#CN1CC[C@H](C(=O)Nc2ncc(-c3ccncc3)s2)C1
GI50 (NCI-H23 lung): 0.0269 µM
TGI (NCI-H23 lung): 3.44 µM
GI50 (DU-145 prostate): < 0.0238 µM
TGI (DU-145 prostate): 39.7 µM
GI50 (RPMI-8226 leukemia): < 0.0201 µM
TGI (RPMI-8226 leukemia): 1.27 µM
GI50 (CAKI-1 renal): 0.101 µM
TGI (CAKI-1 renal): > 83.2 µM
GI50 (OVCAR-8 ovarian): 0.0596 µM
TGI (OVCAR-8 ovarian): > 100 µM
GI50 (SK-MEL-28 melanoma): 0.0814 µM
TGI (SK-MEL-28 melanoma): 9.19 µM
GI50 (SF-268 CNS): 0.127 µM
TGI (SF-268 CNS): 6.96 µM
GI50 (OVCAR-4 ovarian): < 0.027 µM
TGI (OVCAR-4 ovarian): 7.07 µM
GI50 (MDA-MB-231 breast): < 0.0266 µM
TGI (MDA-MB-231 breast): > 50.2 µM
GI50 (A549 NSCLC): 0.262 µM
TGI (A549 NSCLC): > 100 µM

COc1ccc(/C=N/NC(=O)Cn2c(-c3ccc(S(C)(=O)=O)cc3)nc3cc(Cl)ccc32)cc1
GI50 (NCI-H23 lung): 2.39 µM
TGI (NCI-H23 lung): > 50 µM
GI50 (DU-145 prostate): 1.95 µM
TGI (DU-145 prostate): > 50 µM
GI50 (RPMI-8226 leukemia): 1.43 µM
TGI (RPMI-8226 leukemia): 11.4 µM
GI50 (CAKI-1 renal): 4.14 µM
TGI (CAKI-1 renal): > 50 µM
GI50 (OVCAR-8 ovarian): 1.79 µM
TGI (OVCAR-8 ovarian): > 50 µM
GI50 (SK-MEL-28 melanoma): 4.48 µM
TGI (SK-MEL-28 melanoma): > 50 µM
GI50 (SF-268 CNS): 2.76 µM
TGI (SF-268 CNS): > 50 µM
GI50 (OVCAR-4 ovarian): 2.53 µM
TGI (OVCAR-4 ovarian): > 50 µM
GI50 (MDA-MB-231 breast): 2.48 µM
TGI (MDA-MB-231 breast): > 50 µM
GI50 (A549 NSCLC): 1.97 µM
TGI (A549 NSCLC): > 50 µM
